From patent US12178907B2, “Binary lipid bilayer-containing vesicles comprising embedded cytotoxic agents and methods of making and using the same” (The USA, as represented by the Secretary, Department of …, priority 2018, dated 2024)

Tests used:
[1] = 661 nm laser treatment (HPPH photodamage); assay type: physicochemical; conditions: five minutes
Experimental: 661 nm Laser Treatment of Vesicle20-HPPH: Vesicle20-HPPH (containing 50-100 μg lipid & 2.5-5 μg HPPH) were placed in a microcentrifuge tube and irradiated horizontally in a box fitted with a diode laser cube at room temperature. Irradiation was done for five minutes using the 661 nm laser (Coherent Cube Part Number 1130061) at a power output of 90 mW (125 mW/cm^2, as measured by the Thorlabs PM200 Energy Meter with the S121C Photodiode Power Sensor). Free HPPH dispersed in Tween 80 (Tween 80-HPPH) (4) and DPPC:DC8,9PC:DSPEG2000 vesicles (Table 1B) were used as controls to compare the extents of photodamage.
The efficiency of photoactivation by HPPH upon laser exposure depends on its environment and aggregation state. Laser treatment of HPPH results in photodamage and serves as an indication of its activity. Therefore, the photodamage of vesicle-formulated HPPH was compared with Tween 80-HPPH and a formulation comprising DPPC and a lower concentration of DSPE-PEG2000 (see Table 2). The extent of photodamage was tested using Vesicle10-HPPH containing 1:0.05 Lipid:HPPH ratios (Table 2) upon treatment with 661 nm laser for five minutes.

[2] = Low-speed centrifugation to sediment unincorporated HPPH; assay type: physicochemical; conditions: 6,000 rpm, 20-30 minutes, HBS
Experimental: HPPH-loaded vesicles were placed in microcentrifuge tubes and centrifugations were carried out at 6,000 rpm (˜3000 RCF) for 30 minutes at 20-25° C. using a fixed-angle rotor centrifuge. Supernatants containing the vesicle-incorporated HPPH were collected, and any unincorporated HPPH, which aggregates in aqueous environment, was sedimented in the pellet fraction. A sample of an equivalent amount of free HPPH was suspended in HBS (without the lipids), and mixed by vortexing. The free HPPH aggregated in the buffer, which could be sedimented in the pelleted fraction upon centrifugation at low-speed as described above. This protocol presented a simple procedure to remove unincorporated HPPH from the vesicle-associated HPPH.
Free, unincorporated HPPH aggregates in aqueous buffer due to its insolubility, and can be pelleted upon sedimentation by low-speed centrifugation. Size exclusion chromatography (PD10 columns, GE Scientific) was used to separate unincorporated HPPH from the vesicles; however, in these embodiments, it was observed that sonication of HPPH dispersion in the HBS (in the absence of lipids) generated smaller HPPH aggregates that coeluted (in part) with vesicle-associated HPPH on the PD10 column. […] The HPPH suspended in HBS (in the absence of lipids) remained in suspension prior to centrifugation as determined by absorbance measurements. […]

[3] = cited from earlier work

Question: With CCCCCCOC(C)c1c(C)c2cc3nc(c4c5[nH]c(cc6nc(cc1[nH]2)C(C)=C6CC)c(C)c5C(=O)C4)[C@@H](CCC(=O)O)[C@@H]3C (stereo partly shown) [HPPH, 2-[1-hexyloxyethyl]-2-devinyl pyropheophorbide-a] as the compound, how does the “extent of photodamage (HPPH fluorescence remaining after laser)” value [1] read?
Answer: Its value is “did not result in a decrease in fluorescence”.

Question: What about the “HPPH sedimented into the pelleted fraction” value [2] of the same compound?
Answer: The value was “nearly complete sedimentation”.

Question: And the “molar extinction ε” value ([3]; at 665 nm)?
Answer: The value was 47,500 M^−1 cm^−1.

Question: What about the “log P” value ([3]; physiological pH) of the same compound?
Answer: Its value is 5.6.
